Assay results: patent US20230172973A1, “METHODS AND COMPOSITIONS FOR TREATING AND COMBATTING TUBERCULOSIS” (THIRTY RESPIRATORY LIMITED, priority 2020, published 2023)

Experiments:
[1] = system: SARS-CoV-2 clinical isolate; assay: SARS-CoV-2 inhibition (virus yield reduction, TCID50 titration); format: cell-based
Method: At time 0 hr, Vero E6 cells were infected with virus in presence of the formulation or controls and incubated for 1 hour. After this incubation period the inoculum was removed and the cells were washed. Fresh formulation or controls were then added to the washed cells. At 24 hours post infection, Vero E6 cell supernatants were harvested and titrated, and the virus titration was incubated for 6 days prior to readout to determine any virus yield reduction. Separate tests were performed at four MOIs including 3.0 and 0.3, although only those two MOIs were titrated. The readout was by crystal violet (cell monolayer) staining, followed by CPE scoring.

Vero E6 cells = settings: 2 hr and 24 hr

| Compound | SARS-CoV-2 titre (FIG. 33, Run 1) ([1]; MOI 3.0, 24 hours incubation) | SARS-CoV-2 titre (FIG. 34, Run 2) ([1]; MOI 3.0 and MOI 0.3, 48 hours incubation) | In vitro antiviral action against SARS-CoV-2 (FIGS. 33 and 34) ([1]; Vero E6 cells, MOI 3.0 and 0.3) | Cytotoxicity on the LDH assay (FIG. 32) (Vero E6 cells) |
| --- | --- | --- | --- | --- |
| CCN(CC)CCCC(C)Nc1ccnc2cc(Cl)ccc12 (stereo not shown) [chloroquine, Chloroquine phosphate] | limit of detection | limit of detection | – | – |
| O=C(O)CC(O)(CC(=O)O)C(=O)O [citric acid pH 5.8, citric acid] | – | – | high in vitro antiviral action | low cytotoxicity |
